Data published in US20240327389A1, “LACTONE AND LACTAM CONTAINING COMPOUNDS USEFUL AS IMMUNOMODULATORS” (BRISTOL-MYERS SQUIBB COMPANY, priority 2021, published 2024).

Target: PD-1/PD-L1 interaction (PD-1-Ig / PD-L1-His) (Homo sapiens (Human), UniProt Q9NZQ7)
Experiment: PD-1/PD-L1 Homogenous Time-Resolved Fluorescence (HTRF) binding assay
Conditions: PD-L1-His 10 nM final, PD-1-Ig 20 nM final
From the text: The ability of the compounds of the invention to bind to PD-L1 was investigated using a PD-1/PD-L1 Homogenous Time-Resolved Fluorescence (HTRF) binding assay.
The interaction of PD-1 and PD-L1 can be assessed using soluble, purified preparations of the extracellular domains of the two proteins. The PD-1 and PD-L1 protein extracellular domains were expressed as fusion proteins with detection tags, for PD-1, the tag was the Fc portion of Immunoglobulin (PD-1-Ig) and for PD-L1 it was the 6 histidine motif (PD-L1-His). All binding studies were performed in an HTRF assay buffer consisting of dPBS supplemented with 0.1% […] bovine serum albumin and 0.05% (v/v) Tween-20. For the h/PD-L1-His binding assay, inhibitors were pre-incubated with PD-L1-His (10 nM final) for 15 m in 4 μl of assay buffer, followed by addition of PD-1-Ig (20 nM final) in 1 μl of assay buffer and further incubation for 15 m. HTRF detection was achieved using europium crypate-labeled anti-Ig (1 nM final) and allophycocyanin (APC) labeled anti-His (20 nM final). Antibodies were diluted in HTRF detection buffer and 5 μl was dispensed on top of the binding reaction. The reaction mixture was allowed to equilibrate for 30 minutes and the resulting signal (665 nm/620 nm ratio) was obtained using an EnVision fluorometer. Additional binding assays were established between the human proteins PD-1-Ig/PD-L2-His (20 & 5 nM, respectively) and CD80-His/PD-L1-Ig (100 & 10 nM, respectively).
Recombinant Proteins: Human PD-1 (25-167) with a C-terminal human Fc domain of immunoglobulin G (Ig) epitope tag [hPD-1 (25-167)-3S-IG] and human PD-L1 (18-239) with a C-terminal His epitope tag [hPD-L1(18-239)-TVMV-His] were expressed in HEK293T cells and purified sequentially by ProteinA affinity chromatography and size exclusion chromatography. Human PD-L2-His and CD80-His was obtained through commercial sources.
Homogenous Time-Resolved Fluorescence (HTRF) Assays of Binding of Soluble PD-1 to Soluble PD-L1. Soluble PD-1 and soluble PD-L1 refers to proteins with carboxyl-end truncations that remove the transmembrane-spanning regions and are fused to heterologous sequences, specifically the Fc portion of the human immunoglobuling G sequence (Ig) or the hexahistidine epitope tag (His). All binding studies were performed in an HTRF assay buffer consisting of dPBS supplemented with 0.1% (w/v) bovine serum albumin and 0.05% (v/v) Tween-20. For the PD-1-Ig/PD-L1-His binding assay, inhibitors were pre-incubated with PD-L1-His (10 nM final) for 15 m in 4 μl of assay buffer, followed by addition of PD-1-Ig (20 nM final) in 1 μl of assay buffer and further incubation for 15 m. PD-L1 fusion proteins from either human, cynomologous macaques, mouse, or other species were used. HTRF detection was achieved using europium crypate-labeled anti-Ig monoclonal antibody (1 nM final) and allophycocyanin (APC) labeled anti-His monoclonal antibody (20 nM final). Antibodies were diluted in HTRF detection buffer and 5 μl was dispensed on top of binding reaction. The reaction was allowed to equilibrate for 30 minutes and signal (665 nm/620 nm ratio) was obtained using an EnVision fluorometer. Additional binding assays were established between PD-1-Ig/PD-L2-His (20 and 5 nM, respectively), CD80-His/PD-L1-Ig (100 and 10 nM, respectively) and CD80-His/CTLA4-Ig (10 and 5 nM, respectively).
Recombinant Proteins. Carboxyl-truncated human PD-1 (amino acids 25-167) with a C-terminal human Ig epitope tag [hPD-1 (25-167)-3S-IG] and human PD-L1 (amino acids 18-239) with a C-terminal His epitope tag [hPD-L1(19-239)-tobacco vein mottling virus protease cleavage site (TVMV)-His] were expressed in HEK293T cells and purified sequentially by recombinant Protein A affinity chromatography and size exclusion chromatography. Human PD-L2-His (Sino Biologicals), CD80-His (Sino Biologicals), CTLA4-Ig (RnD Systems) were all obtained through commercial sources.

Chain of PD-1/PD-L1 interaction (PD-1-Ig / PD-L1-His) (Q9NZQ7 18-239): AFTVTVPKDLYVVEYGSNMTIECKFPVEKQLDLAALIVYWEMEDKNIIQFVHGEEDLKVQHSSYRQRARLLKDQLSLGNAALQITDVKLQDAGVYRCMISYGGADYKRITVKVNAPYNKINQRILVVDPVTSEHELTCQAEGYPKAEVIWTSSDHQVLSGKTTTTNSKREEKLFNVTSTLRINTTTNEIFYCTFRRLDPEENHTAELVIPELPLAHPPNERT

Cc1c(COc2cc(OCc3cncc(C#N)c3)c(CN[C@H]3CCOC3=O)cc2Cl)cccc1-c1cccc(OCC2CCCN(C)C2)c1Cl (stereo partly drawn) [Compound 1001] and Cc1c(COc2cc(OCc3cncc(C#N)c3)c(CN[C@@H]3CCOC3=O)cc2Cl)cccc1-c1cccc(OCC2CCCN(C)C2)c1Cl (stereo partly drawn) [Compound 1002] are within 1.5-fold of each other in IC50: 2.7 nM for the first, 3.5 nM for the second.

Compared with Cc1c(COc2cc(OCc3cncc(C#N)c3)c(CN[C@H]3COC(=O)C3)cc2Cl)cccc1-c1cccc(OCC2CCCN(C)C2)c1Cl (stereo partly drawn) [Compound 1003], Cc1c(COc2cc(OCc3cncc(C#N)c3)c(CN[C@@H]3COC(=O)C3)cc2Cl)cccc1-c1cccc(OCC2CCCN(C)C2)c1Cl (stereo partly drawn) [Compound 1004] is 1.6-fold higher in IC50: 2 nM for the first, 3.1 nM for the second. The first is the more potent here.

First: Cc1c(COc2cc(OCc3cncc(C#N)c3)c(CNC3(C)CCOC3=O)cc2Cl)cccc1-c1cccc(OCC2CCCN(C)C2)c1Cl (stereo not drawn) [Compound 1005]
Second: Cc1c(COc2cc(OCc3cncc(C#N)c3)c(CNC3(C)CC(C)(C)OC3=O)cc2Cl)cccc1-c1cccc(OCC2CCCN(C)C2)c1Cl (stereo not drawn) [Compound 1009]
The IC50 of the first is 1.8-fold lower: 1.7 nM for the first, 3 nM for the second.

Cc1c(COc2cc(OCc3cncc(C#N)c3)c(CNC3CC(C)OC3=O)cc2Cl)cccc1-c1cccc(OCC2CCCN(C)C2)c1Cl (stereo not drawn) [Compound 1006] and Cc1c(COc2cc(OCc3cncc(C#N)c3)c(CNC3CC(C)(C)OC3=O)cc2Cl)cccc1-c1cccc(OCC2CCCN(C)C2)c1Cl (stereo not drawn) [Compound 1007] are within 1.5-fold of each other in IC50: 2.6 nM for the first, 3.5 nM for the second.

Going from Cc1c(COc2cc(OCc3cncc(C#N)c3)c(CNC3C(=O)OCC3(C)C)cc2Cl)cccc1-c1cccc(OCC2CCCN(C)C2)c1Cl (stereo not drawn) [Compound 1008] to Cc1c(COc2cc(OCc3cncc(C#N)c3)c(CNC3CCN(C)C3=O)cc2Cl)cccc1-c1cccc(OCC2CCCN(C)C2)c1Cl (stereo not drawn) [Compound 1012], the IC50 falls from 4.4 nM to 2.9 nM (1.5-fold).

Compared with Cc1c(COc2cc(OCc3cncc(C#N)c3)c(CN[C@H]3CCNC3=O)cc2Cl)cccc1-c1cccc(OCC2CCCN(C)C2)c1Cl (stereo partly drawn) [Compound 1010], Cc1c(COc2cc(OCc3cncc(C#N)c3)c(CNC3CCNC3=O)cc2Cl)cccc1-c1cccc(OCC2CCCN(C)C2)c1Cl (stereo not drawn) [Compound 1011] is 1.5-fold lower in IC50: 2.3 nM for the first, 1.5 nM for the second.

Cc1c(COc2cc(OCc3cncc(C#N)c3)c(CN[C@H]3CCCNC3=O)cc2Cl)cccc1-c1cccc(OCC2CCCN(C)C2)c1Cl (stereo partly drawn) [Compound 1013] and Cc1c(COc2cc(OCc3cncc(C#N)c3)c(CNC3CCCNC3=O)cc2Cl)cccc1-c1cccc(OCC2CCCN(C)C2)c1Cl (stereo not drawn) [Compound 1014] are within 1.5-fold of each other in IC50: 4 nM for the first, 3.2 nM for the second.

Going from Cc1c(COc2cc(OCc3cncc(C#N)c3)c(CNC3CCC(=O)NC3=O)cc2Cl)cccc1-c1cccc(OCC2CCCN(C)C2)c1Cl (stereo not drawn) [Compound 1015] to Cc1c(COc2cc(OCc3cncc(C#N)c3)c(CNC3CCOC3=O)cc2Cl)cccc1-c1cccc(COc2cc(OCc3cncc(C#N)c3)c(CNC3CCOC3=O)cc2Cl)c1C (stereo not drawn) [Compound 1018], the IC50 rises from 2.4 nM to 15 nM (6.2-fold). The first is the more potent here.

Cc1c(COc2cc(OCc3cncc(C#N)c3)c(CNC3(C)CCOC3=O)cc2Cl)cccc1-c1cccc(COc2cc(OCc3cncc(C#N)c3)c(CNC3(C)CCOC3=O)cc2Cl)c1C (stereo not drawn) [Compound 1016] and Cc1c(COc2cc(OCc3cncc(C#N)c3)c(CO)cc2Cl)cccc1-c1cccc(COc2cc(OCc3cncc(C#N)c3)c(CNC3(C)CCOC3=O)cc2Cl)c1C (stereo not drawn) [Compound 1017] are within 1.5-fold of each other in IC50: 110 nM for the first, 112 nM for the second.

First: Cc1c(COc2cc(OCc3cncc(C#N)c3)c(CN[C@H]3CCOC3=O)cc2Cl)cccc1-c1cccc(COc2cc(OCc3cncc(C#N)c3)c(CN[C@H]3CCOC3=O)cc2Cl)c1C [Compound 1019]
Second: Cc1c(COc2cc(OCc3cncc(C#N)c3)c(CN[C@@H]3CCOC3=O)cc2Cl)cccc1-c1cccc(COc2cc(OCc3cncc(C#N)c3)c(CN[C@@H]3CCOC3=O)cc2Cl)c1C [Compound 1020]
The IC50 of the first is 2.5-fold higher: 18.3 nM for the first, 7.3 nM for the second. The second is the more potent here.

In the case of Cc1c(COc2cc(OCc3cncc(C#N)c3)c(CNC3CC(=O)OC3(C)C)cc2Cl)cccc1-c1cccc(COc2cc(OCc3cncc(C#N)c3)c(CNC3CC(=O)OC3(C)C)cc2Cl)c1C (stereo not drawn) [Compound 1021], the IC50 is reported as 121 nM.
